How the values were obtained:
[1] = test system: patients with and without the E508K variant of HNF1A; experiment: Study of acute glipizide response in humans with the HNF1A E508K variant; assay type: in vivo, human; settings: carriers vs non-carriers of HNF1A E508K, preliminary results, statistical analysis ongoing
Description: Acute and medium-term response to glipizide in patients with and without the E508K variant of HNF1A will be measured. The study will consist of two phases. Patients will be invited to participate in both, but the research subject will have the freedom to choose only one of the stages of the study.
Open Study of a Single Dose of Glipizide (5 mg) in Patients With and Without the E508K Variant of HNF1A
Main Objective: To compare the change in glucose between carriers and noncarriers after a single oral administration of 5 mg of glipizide. […]
Eligible patients will discontinue antidiabetic therapy and initiate a washout period of 7 days, during which they will be monitored for hyperglycemia requiring re-initiation of antidiabetic therapy. […]
Patients will be admitted to the clinical research center after fasting for 8 hours. […] The concentrations of glucose, insulin and other hormones (GLP1) and metabolites will be measured at 15, 30, 60, 90, 120, 180, and 240 minutes after administration of 5 mg of glipizide. In the event of developing symptoms of hypoglycemia, blood glucose will be measured immediately. […]

[2] = cited from earlier work
[3] = cited from earlier work; remark: listed apart in the source

SMILES | hypoglycaemic response to glipizide in carriers of the E508K HNF1A variant [1] | hypoglycaemic response to glipizide in carriers of the E508K HNF1A variant ([1]; listed as glipizide) | life ([2]; described as short) [h] | time until it starts acting ([2]; oral) [min] | risk of inducing severe hypoglycemia ([3]; described as low) | rate of gastrointestinal adverse events ([3]; at the proposed dose)
Cc1cnc(C(=O)NCCc2ccc(S(=O)(=O)NC(=O)NC3CCCCC3)cc2)cn1 [Glipizide] | greater response | great hypoglycaemic response | 2 to 8 | ≤ 30 | 0.19-2.5 episodes per 1000 patient-years | –
CN(C)C(=N)N=C(N)N [Metformin] | – | – | – | – | – | low rate
